Test system: NOMO1
Test: cell viability relative to DMSO control; higher = less cytotoxic
Conditions: 48 h
In short: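 NOMO1, SEM and P12-Ichikawa leukemia cells spent at least four passages adapting to each medium before use. They were seeded at 500 cells/well (NOMO1, SEM) or 1000 cells/well (P12-Ichikawa) in 5 μl in 1536-well plates and pin-dosed with library compounds in DMSO at 11 threefold steps from 47 μM down to 0.79 nM. After 48 h at 37°C, CellTiter-Glo One luminescence was read. Viability is reported as a percentage of the DMSO wells on each plate, with cell-free wells as background.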

[1] = HPLM + 10% dialyzed FBS, 0.000781 µM
[2] = HPLM + 10% dialyzed FBS, 0.00234 µM
[3] = HPLM + 10% dialyzed FBS, 0.00702 µM
[4] = HPLM + 10% dialyzed FBS, 0.0211 µM
[5] = HPLM + 10% dialyzed FBS, 0.0632 µM
[6] = HPLM + 10% dialyzed FBS, 0.19 µM
[7] = HPLM + 10% dialyzed FBS, 0.569 µM
[8] = HPLM + 10% dialyzed FBS, 1.71 µM
[9] = HPLM + 10% dialyzed FBS, 5.12 µM
[10] = HPLM + 10% dialyzed FBS, 15.4 µM
[11] = HPLM + 10% dialyzed FBS, 46.1 µM
[12] = RPMI 5 mM glucose + 10% FBS, 0.000781 µM
[13] = RPMI 5 mM glucose + 10% FBS, 0.00234 µM
[14] = RPMI 5 mM glucose + 10% FBS, 0.00702 µM
[15] = RPMI 5 mM glucose + 10% FBS, 0.0211 µM
[16] = RPMI 5 mM glucose + 10% FBS, 0.0632 µM
[17] = RPMI 5 mM glucose + 10% FBS, 0.19 µM
[18] = RPMI 5 mM glucose + 10% FBS, 0.569 µM
[19] = RPMI 5 mM glucose + 10% FBS, 1.71 µM
[20] = RPMI 5 mM glucose + 10% FBS, 5.12 µM
[21] = RPMI 5 mM glucose + 10% FBS, 15.4 µM
[22] = RPMI 5 mM glucose + 10% FBS, 46.1 µM
[23] = RPMI 5 mM glucose + 10% dialyzed FBS, 0.000781 µM
[24] = RPMI 5 mM glucose + 10% dialyzed FBS, 0.00234 µM
[25] = RPMI 5 mM glucose + 10% dialyzed FBS, 0.00702 µM
[26] = RPMI 5 mM glucose + 10% dialyzed FBS, 0.0211 µM
[27] = RPMI 5 mM glucose + 10% dialyzed FBS, 0.0632 µM
[28] = RPMI 5 mM glucose + 10% dialyzed FBS, 0.19 µM
[29] = RPMI 5 mM glucose + 10% dialyzed FBS, 0.569 µM
[30] = RPMI 5 mM glucose + 10% dialyzed FBS, 1.71 µM
[31] = RPMI 5 mM glucose + 10% dialyzed FBS, 5.12 µM
[32] = RPMI 5 mM glucose + 10% dialyzed FBS, 15.4 µM
[33] = RPMI 5 mM glucose + 10% dialyzed FBS, 46.1 µM

| Structure (SMILES) | cell viability [1] [%] | cell viability [2] [%] | cell viability [3] [%] | cell viability [4] [%] | cell viability [5] [%] | cell viability [6] [%] | cell viability [7] [%] | cell viability [8] [%] | cell viability [9] [%] | cell viability [10] [%] | cell viability [11] [%] | cell viability [12] [%] | cell viability [13] [%] | cell viability [14] [%] | cell viability [15] [%] | cell viability [16] [%] | cell viability [17] [%] | cell viability [18] [%] | cell viability [19] [%] | cell viability [20] [%] | cell viability [21] [%] | cell viability [22] [%] | cell viability [23] [%] | cell viability [24] [%] | cell viability [25] [%] | cell viability [26] [%] | cell viability [27] [%] | cell viability [28] [%] | cell viability [29] [%] | cell viability [30] [%] | cell viability [31] [%] | cell viability [32] [%] | cell viability [33] [%] |
| --- | --- | --- | --- | --- | --- | --- | --- | --- | --- | --- | --- | --- | --- | --- | --- | --- | --- | --- | --- | --- | --- | --- | --- | --- | --- | --- | --- | --- | --- | --- | --- | --- | --- |
| CN(C)CCc1c[nH]c2ccc(C[S+](=O)([O-])N3CCCC3)cc12 | 95.2 | 118 | 104 | 109 | 118 | 113 | 102 | 125 | 107 | 96.2 | 60.2 | 96.7 | 107 | 97.1 | 104 | 123 | 97.1 | 99.3 | 98.5 | 96.4 | 97.6 | 72.2 | 99.5 | 95.8 | 113 | 103 | 106 | 109 | 115 | 102 | 106 | 92 | 58.8 |
| C[C@H]1Oc2cc(cnc2N)-c2c(nn(C)c2C#N)CN(C)C(=O)c2ccc(F)cc21 |  |  |  |  |  |  |  |  |  |  |  | 106 | 132 | 125 | 108 | 119 | 126 | 123 | 123 | 131 | 106 | 101 |  |  |  |  |  |  |  |  |  |  |  |
| C[N+]1(C)[C@@H]2CC(OC(=O)C(O)(c3cccs3)c3cccs3)C[C@H]1[C@@H]1O[C@@H]12 (stereo partly specified) | 109 | 113 | 117 | 126 | 107 | 120 | 128 | 113 | 105 | 110 | 102 | 101 | 87.9 | 88.8 | 116 | 102 | 100 | 92.2 | 87.8 | 95.6 | 94.4 | 107 | 90.3 | 105 | 104 | 106 | 115 | 94.9 | 106 | 97.3 | 99.4 | 99 | 99.9 |
| COc1cc2ncn(-c3cc(OCc4ccccc4C(F)(F)F)c(C(N)=O)s3)c2cc1OC | 124 | 117 | 126 | 117 | 120 | 115 | 89.2 | 46.1 | 42.2 | 41.2 | 24.9 | 99.2 | 111 | 116 | 111 | 120 | 118 | 110 | 94.9 | 26.3 | 24.6 | 17.6 | 108 | 122 | 112 | 113 | 112 | 123 | 117 | 85.2 | 32.4 | 30.1 | 24.9 |
| Cc1cccc(-c2[nH]c(C(C)(C)C)nc2-c2ccc3c(c2)OCO3)n1 | 94.7 | 105 | 107 | 114 | 115 | 95.4 | 104 | 114 | 103 | 24 | 11.9 | 97.4 | 106 | 100 | 93.4 | 101 | 92.7 | 100 | 92.6 | 86.3 | 11.5 | 8.98 | 101 | 92.1 | 94.4 | 94.3 | 107 | 86.9 | 92.8 | 97.2 | 97.3 | 13.9 | 9.64 |
| O=C1CCCC(=O)C1C(=O)c1ccc(C(F)(F)F)cc1[N+](=O)[O-] | 138 | 110 | 105 | 107 | 103 | 106 | 111 | 118 | 113 | 93.6 | 54.3 | 102 | 105 | 99.2 | 99.9 | 104 | 98.4 | 103 | 99.4 | 98.4 | 99.4 | 92.8 | 103 | 108 | 105 | 90.1 | 92 | 111 | 105 | 113 | 96.7 | 95.3 | 92.6 |
| COc1cc2c(Nc3ccc(Cl)c(Cl)c3F)ncnc2cc1OC[C@@H]1C[C@@H]2CN(C)C[C@@H]2C1 | 97.3 | 99 | 106 | 104 | 128 | 127 | 93.3 | 101 | 96.6 | 45.6 | 6.66 | 93.7 | 104 | 115 | 106 | 103 | 115 | 110 | 109 | 111 | 97.8 | 6.22 | 93.4 | 116 | 111 | 112 | 112 | 104 | 107 | 105 | 111 | 92.1 | 4.94 |
| CC(C)[N+]1(C)C2CCC1CC(OC(=O)C(CO)c1ccccc1)C2.O.[Br-] (stereo unspecified) | 129 | 118 | 120 | 117 | 123 | 119 | 148 | 134 | 101 | 58.8 | 21.9 | 103 | 105 | 95.1 | 118 | 108 | 123 | 101 | 116 | 109 | 92.3 | 48.6 | 115 | 115 | 119 | 110 | 132 | 114 | 127 | 121 | 105 | 93.2 | 60.7 |
| O=C1N\C=N/C2=C1C=N[NH]2 | 89.6 | 88.4 | 96.1 | 97 | 97.5 | 86.8 | 97.1 | 103 | 101 | 67.1 | 30 | 77.9 | 87.3 | 83 | 95.4 | 94.9 | 81.7 | 86.5 | 93 | 94.3 | 91.5 | 81 | 71.6 | 78.3 | 69.5 | 84.8 | 70.8 | 91.3 | 83.2 | 88.6 | 89.1 | 81.2 | 71.9 |
| CC[C@@H]1C(=O)N(C)c2cnc(Nc3ccc(C(=O)NC4CCN(C)CC4)cc3OC)nc2N1C1CCCC1 | 125 | 115 | 124 | 118 | 45.9 | 43.7 | 57.4 | 46.6 | 36.9 | 21.5 | 4.78 | 117 | 112 | 116 | 117 | 68.9 | 28.6 | 24.5 | 27.1 | 22.9 | 14.3 | 5.11 | 107 | 121 | 113 | 117 | 53.9 | 30 | 32.6 | 39 | 30.9 | 21.8 | 10.4 |
| Cc1cccc2c1CC[C@H](CN1CCC(c3c(Cl)cccc3Cl)CC1)C[C@@H]2O | 99.8 | 115 | 116 | 126 | 133 | 154 | 150 | 136 | 116 | 97.9 | 83.9 |  |  |  |  |  |  |  |  |  |  |  | 103 | 124 | 130 | 148 | 129 | 145 | 143 | 103 | 82 | 70.2 | 61.5 |
| CC(C)(O)C(=O)Nc1ccc([N+](=O)[O-])c(C(F)(F)F)c1 | 94.7 | 116 | 131 | 124 | 122 | 135 | 126 | 65.8 | 38 | 30.6 | 30.5 | 118 | 123 | 124 | 122 | 120 | 132 | 125 | 51.1 | 29 | 24.1 | 25.7 |  |  |  |  |  |  |  |  |  |  |  |
| CC(C)CC(N(C)C)C1(c2ccc(Cl)cc2)CCC1 (stereo unspecified) | 118 | 136 | 120 | 119 | 116 | 117 | 116 | 113 | 107 | 94.5 | 87 | 110 | 113 | 113 | 118 | 117 | 123 | 119 | 116 | 98.2 | 94.1 | 99 | 109 | 110 | 124 | 115 | 122 | 119 | 120 | 112 | 111 | 103 | 95.1 |
| Nc1nc(NCCNc2ncc(-n3ccnc3)c(-c3ccc(Cl)cc3Cl)n2)ccc1[N+](=O)[O-] |  |  |  |  |  |  |  |  |  |  |  | 105 | 124 | 126 | 128 | 127 | 141 | 144 | 157 | 141 | 151 | 165 | 92.9 | 128 | 119 | 136 | 155 | 160 | 139 | 147 | 168 | 147 | 150 |
| CN1CCN(CCCN2c3ccccc3Sc3ccc(Cl)cc32)CC1.O=C(O)/C=C\C(=O)O.O=C(O)/C=C\C(=O)O | 112 | 123 | 112 | 111 | 124 | 110 | 106 | 47.9 | 42.8 | 29.9 | 32.1 | 97.8 | 106 | 112 | 107 | 109 | 101 | 108 | 81.9 | 58.3 | 24.2 | 28.4 | 94.7 | 104 | 127 | 106 | 117 | 115 | 116 | 68.9 | 73 | 28.3 | 31.9 |
| Nc1ccc([S+](=O)([O-])Nc2ncccn2)cc1 | 115 | 121 | 130 | 126 | 136 | 127 | 129 | 138 | 142 | 129 | 120 |  |  |  |  |  |  |  |  |  |  |  |  |  |  |  |  |  |  |  |  |  |  |

Reference: the supplement of paper PMC11451515
